Values quoted from earlier work, collected in patent US5093322A, “Tick-derived amblyommin and method of antithrombin therapy” (Hoechst Aktiengesellschaft, priority 1988, dated 1992).

How the values were obtained:
[1] = test system: thrombin
[2] = in vivo

In the case of hirudin, the “thrombin inhibition, specificity” value [1] is listed as “highly specific thrombin inhibitor” and the half-life [2] is listed as “relatively short half-life”.
